# Tested on: Lycoris aurea
# Experiment: Galanthamine release of plants subjected to chemical inducer treatment (LC-MS of lyophilized medium)
# Format: in vivo
# Details: for Amounts of galanthamine released into the medium: MS medium with 25 μM chemical inducer, whole plants of Lycoris aurea
# Method: MS mediums containing chemical inducers (chitin (CA), salicylic acid (SA) and methyl jasmonate (MJ)) (final concentration of the chemical inducer is 25 μM) were prepared. Since the chemical inducers could not be high-strength autoclaved, after the preparations of the chemical inducers at room temperature were completed, sterilization by filtration was performed on the chemical inducers in a laminar flow. In the blank group, the medium contained no agent.
# Healthy plants of Lycoris aurea with leaves and root with a bulb diameter of 0.6-0.8 cm were selected and withered epidermis on the bulb thereof was removed. The plant mentioned above was placed in a test tube having MS medium containing a chemical inducer and cultured under an illumination of 3000-4000 Lux with illumination time 16 hours an dark time 8 hours at an ambient temperature of 25-27° C.
# 30 mL of medium was recovered on the Day 0, Day 3, Day 7, Day 14, Day 28 and Day 35 of the culturing. The recovered medium was lyophilized to form a powder. A liquid chromatography-mass spectrometry analysis was performed on the obtained powder to determine the content of galanthamine therein to investigate the effect of the chemical stimulation treatment mentioned above on the plant that produces galanthamine and releases it into the medium.
Compound,Amounts of galanthamine released into the medium (Day 0 of culturing),Amounts of galanthamine released into the medium (Day 3 of culturing),Amounts of galanthamine released into the medium (Day 7 of culturing),Amounts of galanthamine released into the medium (Day 14 of culturing),Amounts of galanthamine released into the medium (Day 28 of culturing),Amounts of galanthamine released into the medium (Day 35 of culturing),"Effect on production and release of galanthamine for the plant (comparison of chemical inducers) (Table 2 and FIG. 7, 25 μM chemical inducer, Lycoris aurea)"
"CC/C=C\CC1C(=O)CCC1CC(=O)OC (centres unmarked) [Methyl jasmonate, methyl jasmonate]",0 ppm,0.0153 ppm,0.0312 ppm,0.0066 ppm,2.72 ppm,0.9 ppm,best effect
"O=C(O)c1ccccc1O [Salicylic acid, salicylic acid]",0 ppm,0.0183 ppm,0.0077 ppm,0.0142 ppm,0.36 ppm,1.01 ppm,–
chitin,0 ppm,0.0015 ppm,0.0001 ppm,0.74 ppm,–,–,–

# Source: US11109538B2, “Method for producing galanthamine by a plant and electrical stimulation device” (Industrial Technology Research Institute, priority 2017, dated 2021)
